Source: patent US20240358707A1, “INHIBITORS OF BRUTON'S TYROSINE KINASE” (Pharmacyclics LLC, priority 2006, published 2024)

Assays:
[1] = test system: BCR-activated calcium flux in Ramos cells; assay: BCR-induced calcium flux assay in Ramos cells; settings: Homo sapiens, read-out: Ramos Cell Ca Flux IC50
[2] = molecular target: Btk (Homo sapiens (Human), UniProt Q06187); assay: Btk acellular kinase assay (TR-FRET); type: biochemical; settings: relative to compound 4
[3] = test system: DHL-6 cells; assay: DHL-6 cell growth (Alamar Blue assay); type: cell-based

Chain of Btk (Q06187 whole entry): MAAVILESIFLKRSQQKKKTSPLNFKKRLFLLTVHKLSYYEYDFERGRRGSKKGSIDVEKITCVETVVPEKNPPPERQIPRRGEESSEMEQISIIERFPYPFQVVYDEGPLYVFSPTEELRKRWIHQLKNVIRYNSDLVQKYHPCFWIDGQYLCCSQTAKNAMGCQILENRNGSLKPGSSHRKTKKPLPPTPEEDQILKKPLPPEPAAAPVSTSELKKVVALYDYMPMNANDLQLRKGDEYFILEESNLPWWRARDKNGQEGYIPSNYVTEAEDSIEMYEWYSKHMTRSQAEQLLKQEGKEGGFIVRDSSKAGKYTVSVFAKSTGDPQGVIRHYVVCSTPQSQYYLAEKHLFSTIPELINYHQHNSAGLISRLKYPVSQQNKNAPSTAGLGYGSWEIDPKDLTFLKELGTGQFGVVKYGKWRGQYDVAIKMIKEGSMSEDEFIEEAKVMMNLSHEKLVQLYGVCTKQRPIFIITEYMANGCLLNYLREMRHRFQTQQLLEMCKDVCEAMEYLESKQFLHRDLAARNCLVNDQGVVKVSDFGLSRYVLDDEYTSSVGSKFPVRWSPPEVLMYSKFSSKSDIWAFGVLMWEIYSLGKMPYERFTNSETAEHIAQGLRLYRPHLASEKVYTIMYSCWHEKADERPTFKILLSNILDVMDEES

IC50 [1] [µM] | Compound | further results
0.089 | C/C=C/C(=O)N1CCCC(n2nc(-c3ccc(Oc4ccccc4)cc3)c3c(N)ncnc32)C1 (stereo not drawn) [Compound 5, (E)-1-(3-(4-amino-3-(4-phenoxyphenyl)-1H-pyrazolo[3,4-d]pyrimidin-1-yl)piperidin-1-yl)but-2-en-1-one] | Fold less potent than compound 4 (Btk) [2]: 28 fold
0.092 | C=CS(=O)(=O)N1CCCC(n2nc(-c3ccc(Oc4ccccc4)cc3)c3c(N)ncnc32)C1 (stereo not drawn) [Compound 6, 1-(3-(4-amino-3-(4-phenoxyphenyl)-1H-pyrazolo[3,4-d]pyrimidin-1-yl)piperidin-1-yl)sulfonylethene] | 
0.009 | Nc1ncnc2c1c(-c1ccc(Oc3ccccc3)cc1)nn2C1CCCN(C(=O)CCl)C1 (stereo not drawn) [Compound 7] | 
0.009 | C#CC(=O)N1CCCC(n2nc(-c3ccc(Oc4ccccc4)cc3)c3c(N)ncnc32)C1 (stereo not drawn) [Compound 8, 1-(3-(4-amino-3-(4-phenoxyphenyl)-1H-pyrazolo[3,4-d]pyrimidin-1-yl)piperidin-1-yl)prop-2-yn-1-one] | 
0.048 | C=CC(=O)N1CCC(n2nc(-c3ccc(Oc4ccccc4)cc3)c3c(N)ncnc32)CC1 [Compound 9, 1-(4-(4-amino-3-(4-phenoxyphenyl)-1H-pyrazolo[3,4-d]pyrimidin-1-yl)piperidin-1-yl)prop-2-en-1-one] | 
0.003 | C=CC(=O)N[C@H]1CC[C@@H](n2nc(-c3ccc(Oc4ccccc4)cc3)c3c(N)ncnc32)CC1 [Compound 10, N-((1s,4s)-4-(4-amino-3-(4-phenoxyphenyl)-1H-pyrazolo[3,4-d]pyrimidin-1-yl)cyclohexyl)acrylamide] | 
0.024 | C=CC(=O)N1CC[C@@H](n2nc(-c3ccc(Oc4ccccc4)cc3)c3c(N)ncnc32)C1 [Compound 11, 1-((R)-3-(4-amino-3-(4-phenoxyphenyl)-1H-pyrazolo[3,4-d]pyrimidin-1-yl)pyrrolidin-1-yl)prop-2-en-1-one] | 
0.09 | C=CC(=O)N1CC[C@H](n2nc(-c3ccc(Oc4ccccc4)cc3)c3c(N)ncnc32)C1 [Compound 12, 1-((S)-3-(4-amino-3-(4-phenoxyphenyl)-1H-pyrazolo[3,4-d]pyrimidin-1-yl)pyrrolidin-1-yl)prop-2-en-1-one] | 
0.036 | CN(C)C/C=C/C(=O)N1CCC[C@@H](n2nc(-c3ccc(Oc4ccccc4)cc3)c3c(N)ncnc32)C1 [Compound 15, (E)-1-(3-(4-amino-3-(4-phenoxyphenyl)-1H-pyrazolo[3,4-d]pyrimidin-1-yl)piperidin-1-yl)-4-(dimethylamino)but-2-en-1-one] | Growth of DHL-6 cells ([3]; 24 h treatment): inhibits growth; Growth of DHL-6 cells ([3]; 48 h treatment): inhibits growth
